Source: publication PMC11203266, “Continuous evolution of compact protein degradation tags regulated by selective molecular glues” (Science (New York, N.Y.), 2024)

Key:
Type in all cases: cell-based, human
[1] = test system: MOLT4 cells; assay: Global quantitative proteomics, MOLT4; conditions: 1 µM; for proteins downregulated (in words): 5 hours, threshold ≥ 2-fold at p ≤ 0.0001
Method: (§1) Cells were lysed by addition of lysis buffer (8 M Urea, 50 mM NaCl, 50 mM 4-(2-hydroxyethyl)-1-piperazineethanesulfonic acid (EPPS) pH 8.5, Protease and Phosphatase inhibitors) and homogenization by bead beating (BioSpec) for three repeats of 30 seconds at 2400. Bradford assay was used to determine the final protein concentration in the clarified cell lysate. 50 μg of protein for each sample was reduced, alkylated and precipitated using methanol/chloroform as previously described ([32]) and the resulting washed precipitated protein was allowed to air dry. Precipitated protein was resuspended in 4 M Urea, 50 mM HEPES pH 7.4, followed by dilution to <1 M urea with the addition of 200 mM EPPS, pH 8. Proteins were digested with LysC (1:50; enzyme:protein) and trypsin (1:50; enzyme:protein) overnight at 37 °C. Sample digests were acidified with formic acid to a pH of 2-3 prior to desalting using C18 solid phase extraction plates (SOLA, Thermo Fisher Scientific). Desalted peptides were dried in a vacuum centrifuge and reconstituted in 0.1% formic acid for LC-MS analysis.
(§2) Data were collected using a TimsTOF Pro2 (Bruker Daltonics, Bremen, Germany) coupled to a nanoElute LC pump (Bruker Daltonics, Bremen, Germany) via a CaptiveSpray nano-electrospray source. Peptides were separated on a reversed-phase C18 column (25 cm x 75 μm ID, […], IonOpticks, Australia) containing an integrated captive spray emitter. Peptides were separated using a 50 min gradient of 2 – 30% buffer B (acetonitrile in 0.1% formic acid) with a flow rate of 250 nL/min and column temperature maintained at 50 °C.
(§3) DDA was performed in Parallel Accumulation-Serial Fragmentation (PASEF) mode to determine effective ion mobility windows for downstream diaPASEF data collection (Meier et al., 2020). The ddaPASEF parameters included: 100% duty cycle using accumulation and ramp times of 50 ms each, 1 TIMS-MS scan and 10 PASEF ramps per acquisition cycle. The TIMS-MS survey scan was acquired between 100–1700 m/z and 1/k0 of 0.7–1.3 V.s/cm^2. Precursors with 1–5 charges were selected and those that reached an intensity threshold of 20,000 arbitrary units were actively excluded for 0.4 min. The quadrupole isolation width was set to 2 m/z for m/z <700 and 3 m/z for m/z >800, with the m/z between 700–800 m/z being interpolated linearly. The TIMS elution voltages were calibrated linearly with three points (Agilent ESI-L Tuning Mix Ions; 622, 922, 1,222 m/z) to determine the reduced ion mobility coefficients (1/K0). To perform diaPASEF, the precursor distribution in the DDA m/z-ion mobility plane was used to design an acquisition scheme for DIA data collection which included two windows in each 50 ms diaPASEF scan. Data was acquired using sixteen of these 25 Da precursor double window scans (creating 32 windows) which covered the diagonal scan line for doubly and triply charged precursors, with singly charged precursors able to be excluded by their position in the m/z-ion mobility plane. These precursor isolation windows were defined between 400–1200 m/z and 1/k0 of 0.7–1.3 V.s/cm^2.
(§4) The diaPASEF raw file processing and controlling peptide and protein level false discovery rates, assembling proteins from peptides, and protein quantification from peptides was performed using either targeted, cell line specific spectral libraries generated by searching offline fractionated DDApasef data against a Swissprot human or mouse database (January 2021) or using library free analysis in DIA-NN 1.8 ([85]). Library free mode performs an in-silico digestion of a given protein sequence database alongside deep learning-based predictions to extract the DIA precursor data into a collection of MS2 spectra. The search results are then used to generate a spectral library which is then employed for the targeted analysis of the DIA data searched against a Swissprot human or mouse database (January 2021). […]

[2] = test system: HEK293T cells stably expressing SD40–eGFP; assay: Global quantitative proteomics, HEK293T expressing SD40–eGFP; conditions: 1 µM
Method: To test the versatility of SD40, we generated five stable HEK293T cell lines that exogenously express N- or C-terminal SD40 fusions with Nluc, Fluc, and the kinase activator PRKRA. […] To investigate whether SD40 targets unintended neosubstrates for degradation, we performed global proteomics using HEK293T cells stably expressing SD40–eGFP.
as §1, §2, §3
The diaPASEF raw file processing and controlling peptide and protein level false discovery rates, assembling proteins from peptides, and protein quantification from peptides was performed using either targeted, cell line specific spectral libraries generated by searching offline fractionated DDApasef data against a Swissprot human or mouse database (January 2021) or using library free analysis in DIA-NN 1.8 ([85]). […]

[3] = test system: KELLY cells; assay: Global quantitative proteomics, KELLY; conditions: 1 µM; for proteins downregulated (in words): 5 hours
Method: as §1, §2, §3, §4

[4] = vs DMSO, 5 hr, HEK293T SD40–eGFP
[5] = vs DMSO, 24 hr, HEK293T SD40–eGFP

SMILES: O=C1CCC(N2C(=O)c3ccc(N4CCOCC4)cc3C2=O)C(=O)N1 (centres unmarked) [PT-179]
- proteins downregulated (in words) [1]: did not significantly downregulate any detected proteins
- logFC ACSL1 (P33121) ([1]; vs DMSO, 5 hr, MOLT4): -1.03E+00
- logFC APOBEC3C (Q9NRW3) ([1]; vs DMSO, 5 hr, MOLT4): -8.07E-01
- logFC ARAP2 (Q8WZ64) ([1]; vs DMSO, 5 hr, MOLT4): -9.22E-01
- logFC NXT1 (Q9UKK6) ([1]; vs DMSO, 5 hr, MOLT4): -8.48E-01
- logFC SNX11 (Q9Y5W9) ([1]; vs DMSO, 5 hr, MOLT4): -9.02E-01
- proteins degraded (in words) ([2]; 5 and 24 hours, ≥ 2-fold at p ≤ 0.0001, ~7,800 detected): SD40–eGFP was the only significantly degraded protein
- logFC MFSD10 (Q14728) [2, 4]: -5.07E-01
- logFC RAB18 (Q9NP72) [2, 4]: -1.62E-01
- logFC RALY (Q9UKM9) [2, 4]: -1.52E-01
- logFC SD40 (XSD40X; SD40–eGFP) [2, 4]: -4.05E+00
- logFC SYNCRIP (O60506) [2, 4]: -1.02E-01
- logFC H2AFV (Q71UI9) [2, 5]: 1.94E-01
- logFC RPS15 (P62841) [2, 5]: 1.99E-01
- logFC SD40 (XSD40X; SD40–eGFP) [2, 5]: -3.53E+00
- logFC SUMO1P1 (G2XKQ0) [2, 5]: 1.61E-01
- logFC TAGLN3 (Q9UI15) [2, 5]: 4.42E-01
- proteins downregulated (in words) [3]: no significant degradation of detected proteins
- logFC GLMP (Q8WWB7) ([3]; vs DMSO, 5 hr, KELLY): -1.07E+00
- logFC KIAA1958 (Q8N8K9) ([3]; vs DMSO, 5 hr, KELLY): -1.94E+00
- logFC SYT14 (Q8NB59) ([3]; vs DMSO, 5 hr, KELLY): -1.10E+00
- logFC TIMM8B (Q9Y5J9) ([3]; vs DMSO, 5 hr, KELLY): -1.14E+00
- logFC TUB (P50607) ([3]; vs DMSO, 5 hr, KELLY): -1.12E+00

SMILES: Nc1cccc2c1C(=O)N(C1CCC(=O)NC1=O)C2=O (centres unmarked) [pomalidomide, reference compound]
- proteins downregulated (in words) [1]: significant downregulation of the previously identified neosubstrates IKZF1 ([9]) and ZFP91
- logFC DYNLT1 (P63172) ([1]; vs DMSO, 5 hr, MOLT4): -9.35E-01
- logFC IKZF1 (Q13422) ([1]; vs DMSO, 5 hr, MOLT4): -2.37E+00
- logFC IKZF3 (Q9UKT9) ([1]; vs DMSO, 5 hr, MOLT4): -9.56E-01
- logFC RAB28 (P51157) ([1]; vs DMSO, 5 hr, MOLT4): -1.66E+00
- logFC ZFP91 (Q96JP5) ([1]; vs DMSO, 5 hr, MOLT4): -1.83E+00
- proteins degraded (in words) ([2]; 5 hours): SD40-eGFP was significantly degraded alongside multiple known endogenous neosubstrates of pomalidomide
- logFC MCFD2 (Q8NI22) [2, 4]: -1.02E+00
- logFC SD40 (XSD40X; SD40–eGFP) [2, 4]: -4.04E+00
- logFC SRSF3 (P84103) [2, 4]: -1.12E-01
- logFC SURF4 (O15260) [2, 4]: 2.44E-01
- logFC ZFP91 (Q96JP5) [2, 4]: -2.03E+00
- proteins downregulated (in words) [3]: robust downregulation of the developmental transcription factor SALL4 ([32]) and ZFP91
- logFC DTWD1 (Q8N5C7) ([3]; vs DMSO, 5 hr, KELLY): -1.64E+00
- logFC GID8 (Q9NWU2) ([3]; vs DMSO, 5 hr, KELLY): -1.75E+00
- logFC RAB28 (P51157) ([3]; vs DMSO, 5 hr, KELLY): -1.53E+00
- logFC SALL4 (Q9UJQ4) ([3]; vs DMSO, 5 hr, KELLY): -2.26E+00
- logFC SSNA1 (O43805) ([3]; vs DMSO, 5 hr, KELLY): -1.42E+00
